≈ marks a conversion by molar mass, not a printed value. Like-named read-outs stand apart in the source and are kept apart here. Marks after values point to notes of the source that are not given here.
How the values were obtained:
[1] = system: Salmonella typhimurium TA98 (frameshift mutations); format: cell-based; details: for mutagenicity classification against TA98: presence/absence of metabolic activation (S9)
Experimental: (§1) Salmonella typhimurium strains, TA98 (frameshift mutations) and TA100 (base-pair substitutions), are used in this assay. Concentration range of the compounds was between […] and 5000 µg/mL according to the previous guidelines. Compounds were prepared in six different concentrations (5, 2.5, 1.25, 0.625, 0.3125 and 0.156 mg/mL) in DMSO. Mutagenic potential was determined in absence and presence of Aroclor™-1254 induced male Sprague–Dawley rat liver microsomal enzyme (S9) mix (Xenometrix AG, Switzerland). Positive controls without S9 mix were 2-Nitrofluorene (2 µg/mL) and 4-nitroquinoline N-oxide (0.1 µg/mL) whereas 1 and 2.5 µg/mL of 2-aminoanthracene solutions were used as positive controls with S9 against TA 98 and TA100, respectively. Solvent control was prepared with 4% DMSO. At the end of the experiment, revertant bacteria dropped the pH of solution and indicator medium color was changed to yellow. Yellow wells were counted as positive and compared with the negative control. Fold induction over the negative control and fold induction over the baseline were calculated. Fold induction over the negative control is the ratio of the mean number of positive wells for the dose concentration divided by the mean number of positive wells for the zero dose (negative) control. Fold induction over the baseline is the ratio of the mean number of positive wells for the dose concentration divided by zero dose baseline. The zero dose baseline is obtained by adding one standard deviation to the mean number of positive wells of the zero dose control. Mutagenicity was determined according to the criteria from previous studies[52]^,[56]. For a value ≤3 and significant increases between two and three-fold the baselines were classified as a weak mutagen, and increases ≥ three-fold the baselines were classified as a mutagen. […] As a rule, at least two adjacent doses with significant increases or a significant increase at the highest dose level should be observed for a mutagenic compound. All doses were compared according to Student’s t-test at p < .05 for statistical significance.
(§2) Ames assay was performed to investigate the genotoxicity of compounds 6h and 6l.

COX-1 = target: T1, COX-1 (Ovis aries, UniProt P05979); test: enzyme kinetics (Lineweaver-Burk), arachidonic acid substrate; format: biochemical; details: for mode of inhibition: Lineweaver-Burk plot analysis; for Ki: secondary plot of slope versus inhibitor concentration, read-out: Ki (steady-state inhibition constant)
T1 construct: purchased Biovision K548-100
T1 sequence (P05979 25-600): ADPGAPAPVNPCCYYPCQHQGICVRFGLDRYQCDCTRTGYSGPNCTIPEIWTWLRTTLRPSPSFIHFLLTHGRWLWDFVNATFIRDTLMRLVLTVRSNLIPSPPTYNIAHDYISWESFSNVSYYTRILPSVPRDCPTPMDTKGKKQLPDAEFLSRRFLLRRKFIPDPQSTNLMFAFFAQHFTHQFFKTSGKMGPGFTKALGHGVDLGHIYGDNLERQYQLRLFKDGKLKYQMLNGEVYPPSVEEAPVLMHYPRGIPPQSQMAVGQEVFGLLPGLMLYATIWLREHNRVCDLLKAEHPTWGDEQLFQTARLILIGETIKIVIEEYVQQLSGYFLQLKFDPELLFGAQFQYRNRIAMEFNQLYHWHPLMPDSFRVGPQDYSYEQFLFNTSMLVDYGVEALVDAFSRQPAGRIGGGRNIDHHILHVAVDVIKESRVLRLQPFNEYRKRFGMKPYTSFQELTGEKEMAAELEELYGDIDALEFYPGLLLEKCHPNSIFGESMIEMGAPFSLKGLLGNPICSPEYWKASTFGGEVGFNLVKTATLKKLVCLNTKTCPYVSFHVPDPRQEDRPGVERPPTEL
Experimental: The mode of inhibition was determined by following the Lineweaver–Burk double reciprocal plot analysis of the data and calculated as per the Michaelis–Menten kinetics. To understand the possible mode of action, Km and Vmax were also calculated. The slopes of the Lineweaver–Burk plots were plotted versus the inhibitor concentration, and the Ki values were determined from the x-axis intercept as inhibition constant − Ki. […] The kinetic parameters of this study were determined based on Michaelis–Menten equation followed by a Lineweaver–Burk double reciprocal analysis of data set regarding […] versus 1/[S] plot.

[2] = system: Staphylococcus aureus (ATCC 25923); test: broth microdilution MIC (CLSI M07-A9), resazurin; format: cell-based; details: ATCC25923, 24 h
Experimental: Microbiological studies were performed according to following guides: CLSI reference […]-A9 broth microdilution method[49] for bacterial strains and EUCAST definitive (EDef 7.1) method[50] for Candida species. Synthesized compounds were tested for their in vitro growth inhibitory activity against Staphylococcus aureus (ATCC 25923), Enterococcus faecalis (ATCC 29212), Listeria monocytogenes (ATCC 1911), Klebsiella pneumoniae (NCTC 9633), Escherichia coli (ATCC 35218), E. coli (ATCC 25922) Candida albicans (ATCC 24433) Candida krusei (ATCC 6258) and Candida parapsilosis (ATCC 22019). Chloramphenicol and ketoconazole were used as control drugs. The cultures were obtained from the Mueller-Hinton broth (Difco) for the bacterial strains after overnight incubation at 37 °C. The yeasts were maintained in Roswell Park Memorial Institute (RPMI) after overnight incubation at 37 °C. […] Testing was carried out in Mueller-Hinton broth and RPMI at pH =7, and the two-fold serial dilutions technique was applied. The last well on the microplates containing only inoculated broth was kept as controls and the last well with no growth of microorganism was recorded to represent the minimum inhibitory concentration (MIC) expressed in μg/mL. For both the antibacterial and antifungal assays, the compounds were dissolved in DMSO. […] The completed plates were incubated for 24 h. At the end of the incubation, resazurin (20 μg/mL) was added into each well and plates were incubated for 2 h. MIC values were determined using a microplate reader at […]. Synthesized compounds (6a-6m) were evaluated for antimicrobial activity against various microorganisms such as Staphylococcus aureus (ATCC 25923), Enterococcus faecalis (ATCC 29212), Listeria monocytogenes (ATCC 1911), Klebsiella pneumoniae (NCTC 9633), Escherichia coli (ATCC 35218), E. coli (ATCC 25922)Candida albicans (ATCC 24433) Candida krusei (ATCC 6258) and Candida parapsilosis (ATCC 22019). […] Chloramphenicol and ketoconazole were used as standard drugs in the activity test. […] Besides, the compounds 6d, 6h, 6l and 6m indicated stronger antibacterial activity than the other compounds in the series.

[3] = system: Salmonella typhimurium TA100 (base-pair substitutions); test: Ames MPF mutagenicity assay, TA100; format: cell-based; details: for mutagenicity classification against TA100: presence or absence of metabolic activation (S9)
Experimental: as §1, §2

Structure (SMILES)	Revertants fold increase (over baseline) TA 98 S9− ([1]; 0.156 mg/mL)	Revertants fold increase (over baseline) TA 98 S9+ ([1]; 0.3125 mg/mL)	Revertants fold increase (over baseline) TA 98 S9− ([1]; 0.3125 mg/mL)	Revertants fold increase (over baseline) TA 98 S9+ ([1]; 0.625 mg/mL)	Revertants fold increase (over baseline) TA 98 S9− ([1]; 0.625 mg/mL)	Revertants fold increase (over baseline) TA 98 S9+ ([1]; 1.25 mg/mL)	Revertants fold increase (over baseline) TA 98 S9− ([1]; 1.25 mg/mL)	Revertants fold increase (over baseline) TA 98 S9+ ([1]; 2.5 mg/mL)	Revertants fold increase (over baseline) TA 98 S9− ([1]; 2.5 mg/mL)	Revertants fold increase (over baseline) TA 98 S9+ ([1]; 5 mg/mL)	Revertants fold increase (over baseline) TA 98 S9− ([1]; 5 mg/mL)	mutagenicity classification against TA98 [1]	Vmax value of the competitive inhibition (COX-1) [nmol/min/mg protein]	mode of inhibition (COX-1)	Ki (COX-1) [nM]	MIC [2] [µg/mL]	Revertants fold increase (over baseline) TA 100 S9+ ([3]; 0.156 mg/mL)	Revertants fold increase (over baseline) TA 100 S9+ ([3]; 0.3125 mg/mL)	Revertants fold increase (over baseline) TA 100 S9− ([3]; 0.3125 mg/mL)	Revertants fold increase (over baseline) TA 100 S9+ ([3]; 0.625 mg/mL)	further results
COc1ccc2sc(SCc3ccc(C(C)C(=O)O)cc3)nc2c1 (stereo not shown) [Compound 6h, 2-(4-(((5-Methoxybenzo[d]thiazol-2-yl)thio)methyl)phenyl)propanoic acid]	0.56	0.52	0.56	0.70	0.60	0.17	0.73	1.05	0.22^a	0.87	0.17^a	non-mutagenic	0.830 ± 0.011	competitive	2070	12.5 (≈ 34.8 µM)	0.60	0.50	0.52	0.20	Revertants fold increase (over baseline) TA 100 S9− ([3]; 0.625 mg/mL): 0.70; Revertants fold increase (over baseline) TA 100 S9+ ([3]; 1.25 mg/mL): 0.25; Revertants fold increase (over baseline) TA 100 S9− ([3]; 1.25 mg/mL): 0.17; Revertants fold increase (over baseline) TA 100 S9+ ([3]; 2.5 mg/mL): 0.25; Revertants fold increase (over baseline) TA 100 S9− ([3]; 2.5 mg/mL): 1.05; Revertants fold increase (over baseline) TA 100 S9+ ([3]; 5 mg/mL): 0.20; Revertants fold increase (over baseline) TA 100 S9− ([3]; 5 mg/mL): 0.87; mutagenicity classification against TA100 [3]: did not show any mutagenicity
COc1ccc2[nH]c(SCc3ccc(C(C)C(=O)O)cc3)nc2c1 (stereo not shown) [Compound 6l, 2-(4-(((5-Methoxy-1H-benzo[d]imidazol-2-yl)thio)methyl)phenyl)propanoic acid]	0.57	0.50	0.31^a	0.75	0.61	0.08^a	0.04a	0.00^a	0.00^a	0.00^a	0.04^a	non-mutagenic	0.669 ± 0.003	competitive	1700	12.5 (≈ 36.5 µM)	0.74	0.52	0.27^a	0.52	Revertants fold increase (over baseline) TA 98 S9+ ([1]; 0.156 mg/mL): 0.17^a; Revertants fold increase (over baseline) TA 100 S9− ([3]; 0.156 mg/mL): 0.53a; Revertants fold increase (over baseline) TA 100 S9− ([3]; 0.625 mg/mL): 0.13^a; Revertants fold increase (over baseline) TA 100 S9+ ([3]; 1.25 mg/mL): 0.00^a; Revertants fold increase (over baseline) TA 100 S9− ([3]; 1.25 mg/mL): 0.13^a; Revertants fold increase (over baseline) TA 100 S9+ ([3]; 2.5 mg/mL): 0.00^a; Revertants fold increase (over baseline) TA 100 S9− ([3]; 2.5 mg/mL): 0.20^a; Revertants fold increase (over baseline) TA 100 S9+ ([3]; 5 mg/mL): 0.00^a; Revertants fold increase (over baseline) TA 100 S9− ([3]; 5 mg/mL): 0.00^a; mutagenicity classification against TA100 [3]: non-mutagenic
